Results taken from article PMC4020744, “Modification, Biological Evaluation and 3D QSAR Studies of Novel 2-(1,3-Diaryl- 4,5-Dihydro-1H-Pyrazol-5-yl)Phenol Derivatives as Inhibitors of B-Raf Kinase” (PLoS ONE, 2014).

Tests used:
[1] = test system: WM266.4 human melanoma cell line; experiment: Anti-proliferation assay (MTT); type: cell-based; details: WM 266-4, WM266.4 human melanoma cell growth, 24 h
Protocol: WM266.4 melanoma cells were cultured in DMEM/10% fetal bovine serum, in 5% CO2 water saturated atmosphere at 37°C. Cell suspensions (10000/mL) were prepared and 100 µL/well dispensed into 96-well plates (Costar) giving 1000 cells/well. The plates were returned to the incubator for 24h to allow the cells to reattach. These compounds were initially prepared at 20mM in DMSO. Aliquots (200 µL) were diluted into 20mL culture medium giving 200 µM, and 10 serial dilutions of 3x prepared. Aliquots (100 µL) of each dilution were added to the wells, giving doses ranging from 100 µM to 0.005 µM. After a further incubated at 37°C for 24h in a humidified atmosphere with 5% CO2, the cell viability was assessed by the conventional 3-(4,5-dimethylthiazol-2-yl)-2,5-diphenyltetrazolium bromide (MTT) reduction assay and carried out strictly according to the manufacturer instructions (Sigma). The absorbance at 590nm was recorded using LX300 Epson Diagnostic micro-plate reader. Then GI50 was calculated using SPSS 13.0 software.

B-Raf^V600E = experiment: V600E mutant B-Raf kinase inhibitory assay (B-Raf^V600E mediated MEK phosphorylation)
Sequence of B-Raf^V600E (P28028 whole entry V585E): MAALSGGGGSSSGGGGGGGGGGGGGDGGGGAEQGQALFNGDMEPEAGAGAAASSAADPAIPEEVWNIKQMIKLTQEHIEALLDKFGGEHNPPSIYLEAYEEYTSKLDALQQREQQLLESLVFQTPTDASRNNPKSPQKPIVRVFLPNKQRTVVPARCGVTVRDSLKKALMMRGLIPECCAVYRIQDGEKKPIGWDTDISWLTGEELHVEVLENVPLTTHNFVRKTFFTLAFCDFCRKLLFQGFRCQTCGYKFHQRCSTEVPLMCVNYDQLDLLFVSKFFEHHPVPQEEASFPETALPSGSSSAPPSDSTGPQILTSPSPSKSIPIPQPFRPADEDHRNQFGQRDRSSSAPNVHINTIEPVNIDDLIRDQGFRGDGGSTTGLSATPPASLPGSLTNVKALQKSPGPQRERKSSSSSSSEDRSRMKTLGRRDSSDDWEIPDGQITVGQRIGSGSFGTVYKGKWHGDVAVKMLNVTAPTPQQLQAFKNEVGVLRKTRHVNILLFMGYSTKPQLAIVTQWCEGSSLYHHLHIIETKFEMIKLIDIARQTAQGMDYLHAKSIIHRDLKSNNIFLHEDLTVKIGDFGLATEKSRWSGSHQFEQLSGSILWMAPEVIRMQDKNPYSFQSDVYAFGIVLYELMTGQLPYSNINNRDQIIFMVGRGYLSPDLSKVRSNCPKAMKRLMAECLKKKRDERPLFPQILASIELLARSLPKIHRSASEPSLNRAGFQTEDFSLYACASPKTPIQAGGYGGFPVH
Protocol: Briefly, 7.5 ng Mouse Full-Length GST-tagged BRAF^V600E (Invitrogen, PV3849) was preincubated at room temperature for 1 h with 1 µL drug and 4 µL assay dilution buffer. The kinase assay was initiated when 5 µL of a solution containing 200 ng recombinant human full length, N-terminal His-tagged MEK1 (Invitrogen), 200 µM ATP, and 30 mM MgCl2 in assay dilution buffer was added. The kinase reaction was allowed to continue at room temperature for 25 min and was then quenched with 5 µL 5x protein denaturing buffer (LDS) solution. Protein was further denatured by heating for 5 min at 70°C. 10 µL of each reaction was loaded into a 15-well, 4–12% precast NuPage gel (Invitrogen) and run at 200 V, and upon completion, the front, which contained excess hot ATP, was cut from the gel and discarded. The gel was then dried and developed onto a phosphor screen.

Structure (SMILES) | GI50 [1] | melting point | IC50 (B-Raf^V600E)
Oc1c(Cl)cc(Cl)cc1C1CC(c2ccc(Cl)c(Cl)c2)=NN1c1ccccc1 (centres unmarked) [Compound C24, 2,4-dichloro-6-(3-(3,4-dichlorophenyl)-1-phenyl-4,5-dihydro-1H-pyrazol-5-yl)phenol] | 2340 ± 170 nM | 63 to 65 °C | 970 ± 90 nM
COc1ccc(C2=NN(c3ccccc3)C(c3ccccc3O)C2)cc1 (centres unmarked) [Compound C5, 2-(3-(4-methoxyphenyl)-1-phenyl-4,5-dihydro-1H-pyrazol-5-yl)phenol] | 1980 ± 170 nM | 35 to 37 °C | 510 ± 50 nM
Oc1ccc(Cl)cc1C1CC(c2ccc(Cl)c(Cl)c2)=NN1c1ccccc1 (centres unmarked) [Compound C12, 4-chloro-2-(3-(3,4-dichlorophenyl)-1-phenyl-4,5-dihydro-1H-pyrazol-5-yl)phenol] | 1990 ± 130 nM | 77 to 79 °C | 500 ± 50 nM
Oc1ccc(Br)cc1C1CC(c2ccc(F)cc2)=NN1c1ccccc1 (centres unmarked) [Compound C13, 4-bromo-2-(3-(4-fluorophenyl)-1-phenyl-4,5-dihydro-1H-pyrazol-5-yl)phenol] | 4450 ± 410 nM | 73 to 76 °C | 2730 ± 190 nM
Oc1ccccc1C1CC(c2ccc(F)cc2)=NN1c1ccccc1 (centres unmarked) [Compound C1, 2-(3-(4-fluorophenyl)-1-phenyl-4,5-dihydro-1H-pyrazol-5-yl)phenol] | > 50000 nM | 38 to 41 °C | 71900 ± 6770 nM
Cc1ccc(C2=NN(c3ccccc3)C(c3ccccc3O)C2)cc1 (centres unmarked) [Compound C4, 2-(1-phenyl-3-(p-tolyl)-4,5-dihydro-1H-pyrazol-5-yl)phenol] | 2850 ± 230 nM | 32 to 34 °C | 1490 ± 110 nM
Oc1ccccc1C1CC(c2ccc(Br)cc2)=NN1c1ccccc1 (centres unmarked) [Compound C3, 2-(3-(4-bromophenyl)-1-phenyl-4,5-dihydro-1H-pyrazol-5-yl)phenol] | 2090 ± 180 nM | 65 to 68 °C | 630 ± 60 nM
CCCS(=O)(=O)Nc1ccc(F)c(C(=O)c2c[nH]c3ncc(-c4ccc(Cl)cc4)cc23)c1F [Vemurafenib, reference compound] | 210 ± 20 nM | – | –
Oc1c(Cl)cc(Cl)cc1C1CC(c2ccc(F)cc2)=NN1c1ccccc1 (centres unmarked) [Compound C19, 2,4-dichloro-6-(3-(4-fluorophenyl)-1-phenyl-4,5-dihydro-1H-pyrazol-5-yl)phenol] | 3760 ± 320 nM | 37 to 39 °C | 2260 ± 190 nM
C#Cc1cccc(Nc2ncnc3cc(OCCOC)c(OCCOC)cc23)c1 [Erlotinib, reference compound] | 8120 ± 750 nM | – | –
Cc1ccc(C2=NN(c3ccccc3)C(c3cc(Cl)ccc3O)C2)cc1 (centres unmarked) [Compound C10, 4-chloro-2-(1-phenyl-3-(p-tolyl)-4,5-dihydro-1H-pyrazol-5-yl)phenol] | 5370 ± 490 nM | 43 to 46 °C | 3240 ± 280 nM
Oc1ccc(Br)cc1C1CC(c2ccc(Cl)cc2)=NN1c1ccccc1 (centres unmarked) [Compound C14, 4-bromo-2-(3-(4-chlorophenyl)-1-phenyl-4,5-dihydro-1H-pyrazol-5-yl)phenol] | 3690 ± 320 nM | 88 to 91 °C | 2200 ± 200 nM
Oc1ccc(Cl)cc1C1CC(c2ccc(Cl)cc2)=NN1c1ccccc1 (centres unmarked) [Compound C8, 4-chloro-2-(3-(4-chlorophenyl)-1-phenyl-4,5-dihydro-1H-pyrazol-5-yl)phenol] | 4390 ± 310 nM | 68 to 71 °C | 2660 ± 190 nM
Oc1c(Cl)cc(Cl)cc1C1CC(c2ccc(Br)cc2)=NN1c1ccccc1 (centres unmarked) [Compound C21, 2-(3-(4-bromophenyl)-1-phenyl-4,5-dihydro-1H-pyrazol-5-yl)-4,6-dichlorophenol] | 5130 ± 490 nM | 56 to 59 °C | 3120 ± 260 nM
Oc1ccc(Cl)cc1C1CC(c2ccc(Br)cc2)=NN1c1ccccc1 (centres unmarked) [Compound C9, 2-(3-(4-bromophenyl)-1-phenyl-4,5-dihydro-1H-pyrazol-5-yl)-4-chlorophenol] | 2730 ± 210 nM | 90 to 93 °C | 1370 ± 130 nM
Oc1ccc(Br)cc1C1CC(c2ccc(Cl)c(Cl)c2)=NN1c1ccccc1 (centres unmarked) [Compound C18, 4-bromo-2-(3-(3,4-dichlorophenyl)-1-phenyl-4,5-dihydro-1H-pyrazol-5-yl)phenol] | 1880 ± 150 nM | 95 to 98 °C | 340 ± 20 nM
COc1ccc(C2=NN(c3ccccc3)C(c3cc(Br)ccc3O)C2)cc1 (centres unmarked) [Compound C17, 4-bromo-2-(3-(4-methoxyphenyl)-1-phenyl-4,5-dihydro-1H-pyrazol-5-yl)phenol] | 2030 ± 180 nM | 65 to 67 °C | 570 ± 50 nM
Cc1ccc(C2=NN(c3ccccc3)C(c3cc(Cl)cc(Cl)c3O)C2)cc1 (centres unmarked) [Compound C22, 2,4-dichloro-6-(1-phenyl-3-(p-tolyl)-4,5-dihydro-1H-pyrazol-5-yl)phenol] | 23900 ± 1990 nM | 29 to 31 °C | 7370 ± 650 nM
COc1ccc(C2=NN(c3ccccc3)C(c3cc(Cl)ccc3O)C2)cc1 (centres unmarked) [Compound C11, 4-chloro-2-(3-(4-methoxyphenyl)-1-phenyl-4,5-dihydro-1H-pyrazol-5-yl)phenol] | 2430 ± 160 nM | 49 to 51 °C | 1070 ± 80 nM
Oc1ccccc1C1CC(c2ccc(Cl)c(Cl)c2)=NN1c1ccccc1 (centres unmarked) [Compound C6, 2-(3-(3,4-dichlorophenyl)-1-phenyl-4,5-dihydro-1H-pyrazol-5-yl)phenol] | 1750 ± 120 nM | 57 to 59 °C | 150 ± 10 nM
Oc1ccc(Br)cc1C1CC(c2ccc(Br)cc2)=NN1c1ccccc1 (centres unmarked) [Compound C15, 4-bromo-2-(3-(4-bromophenyl)-1-phenyl-4,5-dihydro-1H-pyrazol-5-yl)phenol] | 2650 ± 190 nM | 104 to 106 °C | 1290 ± 100 nM
Oc1ccccc1C1CC(c2ccc(Cl)cc2)=NN1c1ccccc1 (centres unmarked) [Compound C2, 2-(3-(4-chlorophenyl)-1-phenyl-4,5-dihydro-1H-pyrazol-5-yl)phenol] | 2010 ± 130 nM | 54 to 56 °C | 500 ± 40 nM
Oc1c(Cl)cc(Cl)cc1C1CC(c2ccc(Cl)cc2)=NN1c1ccccc1 (centres unmarked) [Compound C20, 2,4-dichloro-6-(3-(4-chlorophenyl)-1-phenyl-4,5-dihydro-1H-pyrazol-5-yl)phenol] | 3590 ± 280 nM | 42 to 43 °C | 2140 ± 190 nM
Cc1ccc(C2=NN(c3ccccc3)C(c3cc(Br)ccc3O)C2)cc1 (centres unmarked) [Compound C16, 4-bromo-2-(1-phenyl-3-(p-tolyl)-4,5-dihydro-1H-pyrazol-5-yl)phenol] | 4550 ± 440 nM | 59 to 63 °C | 2780 ± 210 nM
Oc1ccc(Cl)cc1C1CC(c2ccc(F)cc2)=NN1c1ccccc1 (centres unmarked) [Compound C7, 4-chloro-2-(3-(4-fluorophenyl)-1-phenyl-4,5-dihydro-1H-pyrazol-5-yl)phenol] | 4260 ± 360 nM | 60 to 63 °C | 2600 ± 230 nM
COc1ccc(C2=NN(c3ccccc3)C(c3cc(Cl)cc(Cl)c3O)C2)cc1 (centres unmarked) [Compound C23, 2,4-dichloro-6-(3-(4-methoxyphenyl)-1-phenyl-4,5-dihydro-1H-pyrazol-5-yl)phenol] | 2380 ± 230 nM | 33 to 34 °C | 1010 ± 80 nM
